Laboratory results published in publication PMC4890880 (ACS infectious diseases, 2016).
pIC50: −log10 of the molar value. Where two headings read alike, the source gives them in different places.

Test system: HepG2-A16-CD81EGFP cells
Conditions: for pIC50: read-out: Tox_IC50, HepG2 cytotoxicity
[1] = sheet 2nd round, maximal inhibition in dose response
[2] = 2nd round, maximal inhibition in dose series

Compound | pIC50 (sheet 2nd round) | Tox_max_inhibition (%) [1] [%] | Tox_max_inhibition (%) [2] [%] | pIC50 (2nd round, unit inferred) | also measured
C[C@@H]1CN([C@H](C)CO)C(=O)c2cc(NC(=O)Nc3ccc4c(c3)OCO4)ccc2O[C@@H](C)CCCCO[C@H]1CN(C)S(=O)(=O)c1ccccc1 [BRD-K54383078-001-01-5] | < 5.00 | 5.48 | – | – | –
COc1ccc(-c2ccccc2[C@@H]2[C@@H](C#N)N(C(=O)NC3CCCCC3)[C@H]2CO)cc1 [BRD-K55353065-001-01-2] | – | – | 11 | < 5.00 | –
COc1ccc(NC(=O)N2CCCCN3[C@H](CO)[C@@H](c4ccc(-c5ccccc5F)cc4)[C@H]3C2)cc1 [BRD-K55569739-001-01-9] | < 5.00 | 3.75 | – | – | –
C[C@H]1CN([C@@H](C)CO)C(=O)c2cccc(NC(=O)NC3CCCCC3)c2O[C@H]1CN(C)Cc1ccc(C(F)(F)F)cc1 [BRD-K56432748-001-01-8] | < 5.00 | 10 | – | – | –
O=C(C[C@@H]1C[C@H]2c3cc(NC(=O)c4ccc5c(c4)OCO5)ccc3O[C@H]2[C@H](CO)O1)NCc1ccc(Oc2ccccc2)cc1 [BRD-K60334624-001-01-9] | < 5.00 | 4.54 | – | – | –
CCCNC(=O)N1[C@H](C#N)[C@H](c2ccc(C#Cc3ccc(F)cc3)cc2)[C@@H]1CO [BRD-K61371184-001-01-2] | – | – | – | – | pIC50 (sheet "2nd round"): < 5.00; Tox_max_inhibition (%) (sheet "2nd round"): 22%
COc1ccc(S(=O)(=O)Nc2ccc3c(c2)C(=O)N([C@H](C)CO)C[C@@H](C)[C@@H](CN(C)S(=O)(=O)c2ccc(Cl)cc2)OCCCC[C@@H](C)O3)cc1 [BRD-K63849586-001-01-9] | – | – | 13 | < 5.00 | –
Cc1ccc(S(=O)(=O)N2CC[C@H]3[C@H](CO)Nc4ccc(-c5cccc(C(=O)N(C)C)c5)cc4[C@H]32)cc1 [BRD-K64741770-001-01-3] | < 5.00 | 15 | – | – | –
N#Cc1ccc(-c2ccc(C3[C@@H]4CN(C(=O)Nc5ccc6c(c5)OCO6)C[C@H]3N4)cc2)cc1 (some centres unmarked) [BRD-K65395967-019-01-2] | – | – | 28 | < 5.00 | –
O=C(C[C@H]1C[C@H]2c3cc(NC(=O)c4ccc5c(c4)OCO5)ccc3O[C@H]2[C@H](CO)O1)NCc1ccc(Oc2ccccc2)cc1 [BRD-K67774729-001-02-1] | < 5.00 | 24 | – | – | –
O=C(C[C@@H]1C[C@H]2c3cc(NC(=O)c4ccc5c(c4)OCO5)ccc3O[C@H]2[C@@H](CO)O1)NCc1ccc(Oc2ccccc2)cc1 [BRD-K67862512-001-01-7] | < 5.00 | 23 | – | – | –
Cc1ccccc1-c1ccc2c(c1)O[C@H](CN(C)C(=O)Nc1ccc(C(F)(F)F)cc1)[C@@H](C)CN([C@@H](C)CO)S2(=O)=O [BRD-K68538844-001-01-1] | < 5.00 | 35 | – | – | –
C[C@@H]1CN([C@@H](C)CO)C(=O)c2cc(NC(=O)Nc3ccc4c(c3)OCO4)ccc2O[C@@H](C)CCCCO[C@H]1CN(C)S(=O)(=O)c1ccccc1 [BRD-K69357983-001-01-6] | – | – | 9 | < 5.00 | –
N#C[C@H]1[C@H](c2ccc(-c3cccc(F)c3)cc2)[C@@H](CO)N1C(=O)NC1CCCC1 [BRD-K69441790-001-01-1] | 5.01 | 57 | – | – | –
Fc1cccc(CN2C[C@@H]3N[C@H](C2)C3c2ccc(/C=C/c3ccccc3)cc2)c1 (some centres unmarked) [BRD-K69682028-019-01-6] | – | – | – | – | pIC50 (sheet "2nd round"): < 5.00; Tox_max_inhibition (%) (sheet "2nd round"): 16%
CCCNC(=O)N1[C@H](C#N)[C@@H](c2ccccc2C2=CCCCC2)[C@@H]1CO [BRD-K70760948-001-01-2] | – | – | 10 | < 5.00 | –
C[C@H](CO)N1C[C@H](C)[C@@H](CN(C)Cc2ccccc2)Oc2c(NC(=O)Cc3cn(C)c4ccccc34)cccc2C1=O [BRD-K71196168-001-01-1] | – | – | – | – | pIC50 (sheet "2nd round"): < 5.00; Tox_max_inhibition (%) (sheet "2nd round"): 44%
COc1ccccc1C#Cc1ccc([C@H]2[C@@H](C#N)N(C(=O)C3CCCC3)[C@H]2CO)cc1 [BRD-K71730412-001-01-1] | < 5.00 | 13 | – | – | –
C[C@@H]1CN([C@@H](C)CO)C(=O)c2cc(N(C)C)ccc2O[C@@H](C)CCCCO[C@H]1CN(C)S(=O)(=O)c1ccc(F)cc1 [BRD-K72173400-001-01-7] | < 5.00 | 6 | – | – | –
COc1ccccc1-c1ccc2c(c1)[C@@H]1[C@@H](CCN1C(=O)C1CCC1)[C@H](CO)N2 [BRD-K72492940-001-01-8] | < 5.00 | 18 | – | – | –
N#Cc1cccc(-c2ccc3c(c2)[C@H]2[C@H](CCN2S(=O)(=O)c2ccc(F)cc2)[C@@H](CO)N3)c1 [BRD-K73006286-001-01-7] | < 5.00 | 15 | – | – | –
C[C@H]1CN([C@@H](C)CO)C(=O)c2cccc(NC(=O)c3ccc(-c4nccs4)cc3)c2O[C@H]1CN(C)C(=O)Nc1ccc(C(F)(F)F)cc1 [BRD-K73614094-001-01-0] | – | – | 12 | < 5.00 | –

Compound | pIC50 (sheet 2nd round) | Tox_max_inhibition (%) [1] [%] | Tox_max_inhibition (%) [2] [%] | pIC50 (2nd round, unit inferred) | also measured
CCCC(=O)N1CCC2(CC1)CN(S(=O)(=O)c1ccc(C)cc1)[C@@H](CO)c1[nH]c3cc(OC)ccc3c12 [BRD-K73703617-001-01-9] | – | – | 12 | < 5.00 | –
CCCNC(=O)N1[C@H](C#N)[C@H](c2ccccc2-c2cccc(C)c2)[C@@H]1CO [BRD-K74392214-001-01-7] | < 5.00 | 7.44 | – | – | –
N#C[C@H]1N[C@H](CO)[C@H]1c1ccc(C#CC2CCCCC2)cc1 [BRD-K74656908-001-01-6] | < 5.00 | 6 | – | – | –
C[C@H](CO)N1C[C@H](C)[C@H](CN(C)C(=O)Nc2ccc(C(F)(F)F)cc2)Oc2c(NC(=O)c3ccc(-c4nccs4)cc3)cccc2C1=O [BRD-K74949371-001-01-3] | < 5.00 | 6.39 | – | – | –
OC[C@@H]1[C@H](c2ccc(-c3ccc(F)cc3)cc2)[C@@H](CNC2CCCC2)N1CCC(F)(F)F [BRD-K76178468-001-01-1] | < 5.00 | 22 | – | – | –
CCCNC(=O)Nc1ccc2c(c1)OC[C@@H](C)N(Cc1ccccc1)C[C@@H](C)[C@H](OC)CN(C)C2=O [BRD-K76980944-001-01-4] | – | – | 6 | < 5.00 | –
C[C@H](CO)N1C[C@H](C)[C@H](CN(C)C(=O)C2CCCCC2)Oc2ncc(C#Cc3cccc(F)c3)cc2C1=O [BRD-K77264696-001-01-2] | < 5.00 | 30 | – | – | –
C[C@@H]1CN([C@@H](C)CO)C(=O)c2cc(C#Cc3ccccc3)cnc2O[C@H]1CN(C)C(=O)c1ccccc1 [BRD-K77826636-001-01-1] | – | – | 20 | < 5.00 | –
C[C@H](CO)N1C[C@H](C)[C@@H](CN(C)S(=O)(=O)c2ccccc2)OCCCC[C@H](C)Oc2ccc(NC(=O)Nc3ccc4c(c3)OCO4)cc2C1=O [BRD-K78605373-001-01-5] | – | – | 10 | < 5.00 | –
C[C@@H]1CCCCO[C@@H](CN(C)C(=O)Nc2cccc3ccccc23)[C@H](C)CN([C@H](C)CO)C(=O)c2cc(NC(=O)CCC(F)(F)F)ccc2O1 [BRD-K78692607-001-01-1] | < 5.00 | 10 | – | – | –
COc1ccc(NC(=O)N2CCCCN3[C@H](CN(C)C)[C@H](c4ccc(C#Cc5ccccc5)cc4)[C@@H]3C2)cc1 [BRD-K78727929-001-08-1] | 5.07 | 100 | – | – | –
N#C[C@H]1N[C@H](CO)[C@H]1c1ccc(C#Cc2ccccc2F)cc1 [BRD-K80648041-001-01-3] | < 5.00 | 11 | – | – | –
CCCNC(=O)N1[C@H](C#N)[C@H](c2ccc(-c3cccc(OC)c3)cc2)[C@@H]1CO [BRD-K80906650-001-01-7] | – | – | – | – | pIC50 (sheet "2nd round"): < 5.00; Tox_max_inhibition (%) (sheet "2nd round"): 45%
CCCNC(=O)N1[C@H](C#N)[C@H](c2ccc(-c3ccccc3F)cc2)[C@@H]1CO [BRD-K81164606-001-02-5] | – | – | 43 | < 5.00 | –
N#C[C@H]1[C@@H](c2ccc(C3=CCCCC3)cc2)[C@@H](CO)N1C(=O)Nc1ccccc1F [BRD-K81680265-001-01-4] | – | – | 11 | < 5.00 | –
C(=C\c1ccc(C2[C@@H]3CN(Cc4nccs4)C[C@H]2N3)cc1)/c1ccccc1 (some centres unmarked) [BRD-K82593502-019-01-3] | – | – | 13 | < 5.00 | –
COc1ccc(NC(=O)N2CCCCN3[C@H](CO)[C@H](c4ccc(C#Cc5ccccc5)cc4)[C@@H]3C2)cc1 [BRD-K83953444-001-02-5] | < 5.00 | 55 | – | – | –
O=C(Nc1ccccc1F)N1CCCCN2[C@H](CO)[C@H](c3ccc(/C=C/c4ccccc4)cc3)[C@@H]2C1 [BRD-K85670919-001-01-1] | < 5.00 | 13 | – | – | –
O=C(NCC[C@H]1CC[C@H](NC(=O)c2ccccc2F)[C@@H](CO)O1)c1cnccn1 [BRD-K85850546-001-01-0] | < 5.00 | 9 | – | – | –
N#C[C@H]1[C@@H](c2ccc(-c3cccnc3)cc2)[C@@H](CO)N1C(=O)Nc1ccc(F)cc1 [BRD-K86354270-001-02-2] | < 5.00 | 14 | – | – | –
COc1ccccc1C#Cc1ccc([C@H]2[C@@H](C#N)N(C(=O)C3CCCCC3)[C@H]2CO)cc1 [BRD-K87117984-001-01-1] | 5.01 | 57 | – | – | –
